Measurements: PMC12422966, “ACLY inhibition promotes tumour immunity and suppresses liver cancer” (Nature, 2025)

Biological target: T1, SLC27A2 (FATP2, ACSVL1) (Homo sapiens, UniProt O14975)
T1 construct: SLC27A2 (NM_003645, human tagged ORF clone) expressed in HEK293 cells
Test: LC–MS/MS detection of EVT0185-CoA in HEK293 cells overexpressing SLC27A2, […] EVT0185
Type: cell-based

In the case of CC(C)(CCCCc1ccc(CCCCC(C)(C)C(=O)O)cc1)C(=O)O [EVT0185, 6-[4-(5-carboxy-5-methyl-hexyl)-phenyl]−2,2-dimethylhexanoic acid], the “LC-MS/MS detection of EVT0185-CoA in HEK293 cells overexpressing SLC27A2, 30 μM” value is reported as “Incubation of HEK293 cells with EVT0185 followed by mass spectrometry analysis indicated that only cells expressing SLC27A2 generated the CoA thioester”.
